{"source": "ChEMBL document CHEMBL1122712", "about": "“[(E)-1-[123I]Iodo-1-penten-5-yl]triphenylphosphonium iodide: convenient preparation of a potentially useful myocardial perfusion agent” (J Med Chem, 1984)", "type_in_all_cases": "ADME, organism-based", "key": {"[1]": {"system": "Rattus norvegicus", "experiment": "Distribution of radioactivity in the female rat blood tissues after intravenous administration after 1 day was determined", "settings": "in vivo, 24 h"}, "[2]": {"system": "Rattus norvegicus", "experiment": "Distribution of radioactivity in the female rat liver tissues after intravenous administration after 3 days was determined", "settings": "in vivo, 72 h"}, "[3]": {"system": "Rattus norvegicus", "experiment": "Distribution of radioactivity in the female rat kidney tissues after intravenous administration after 3h was determined", "settings": "in vivo"}, "[4]": {"system": "Rattus norvegicus", "experiment": "Distribution of radioactivity in the female rat lung tissues after intravenous administration after 3 days was determined", "settings": "in vivo, 72 h"}, "[5]": {"system": "Rattus norvegicus", "experiment": "Distribution of radioactivity in the female rat heart tissues after intravenous administration after 3 days was determined", "settings": "in vivo, 72 h"}, "[6]": {"system": "Rattus norvegicus", "experiment": "Distribution of radioactivity in the female rat lung tissues after intravenous administration after 5 min was determined", "settings": "in vivo"}, "[7]": {"system": "Rattus norvegicus", "experiment": "Distribution of radioactivity in the female liver rat tissues after intravenous administration after 30 min was determined", "settings": "in vivo, 0.5 h"}, "[8]": {"system": "Rattus norvegicus", "experiment": "Distribution of radioactivity in the female rat lung tissues after intravenous administration after 3h was determined", "settings": "in vivo"}, "[9]": {"system": "Rattus norvegicus", "experiment": "Distribution of radioactivity in the female rat lung tissues after intravenous administration after 30 min was determined", "settings": "in vivo, 0.5 h"}, "[10]": {"system": "Rattus norvegicus", "experiment": "Distribution of radioactivity in the female rat kidney tissues after intravenous administration after 3 days was determined", "settings": "in vivo, 72 h"}, "[11]": {"system": "Rattus norvegicus", "experiment": "Distribution of radioactivity in the female rat blood tissues after intravenous administration after 3 days was determined", "settings": "in vivo, 72 h"}, "[12]": {"system": "Rattus norvegicus", "experiment": "Distribution of radioactivity in the female heart rat tissues after intravenous administration after 3 days was determined", "settings": "in vivo, 72 h"}, "[13]": {"system": "Rattus norvegicus", "experiment": "Distribution of radioactivity in the female rat blood tissues after intravenous administration after 30 min was determined", "settings": "in vivo, 0.5 h"}, "[14]": {"system": "Rattus norvegicus", "experiment": "Distribution of radioactivity in the female rat blood tissues after intravenous administration after 3h was determined", "settings": "in vivo"}, "[15]": {"system": "Rattus norvegicus", "experiment": "Distribution of radioactivity in the female rat liver tissues after intravenous administration after 1 day was determined", "settings": "in vivo, 24 h"}, "[16]": {"system": "Rattus norvegicus", "experiment": "Distribution of radioactivity in the female rat kidney tissues after intravenous administration after 30 min was determined", "settings": "in vivo, 0.5 h"}, "[17]": {"system": "Rattus norvegicus", "experiment": "Distribution of radioactivity in the female rat lung tissues after intravenous administration after 1 day was determined", "settings": "in vivo, 24 h"}, "[18]": {"system": "Rattus norvegicus", "experiment": "Distribution of radioactivity in the female rat liver tissues after intravenous administration after 30 min was determined", "settings": "in vivo, 0.5 h"}, "[19]": {"system": "Rattus norvegicus", "experiment": "Distribution of radioactivity in the female rat kidney tissues after intravenous administration after 60 min was determined", "settings": "in vivo, 1 h"}, "[20]": {"system": "Rattus norvegicus", "experiment": "Distribution of radioactivity in the female rat kidney tissues after intravenous administration after 1 day was determined", "settings": "in vivo, 24 h"}, "[21]": {"system": "Rattus norvegicus", "experiment": "Distribution of radioactivity in the female rat liver tissues after intravenous administration after 60 min was determined", "settings": "in vivo, 1 h"}, "[22]": {"system": "Rattus norvegicus", "experiment": "Distribution of radioactivity in the female rat heart tissues after intravenous administration after 5 min was determined", "settings": "in vivo"}, "[23]": {"system": "Rattus norvegicus", "experiment": "Distribution of radioactivity in the female rat lung tissues after intravenous administration after 60 min was determined", "settings": "in vivo, 1 h"}, "[24]": {"system": "Rattus norvegicus", "experiment": "Distribution of radioactivity in the female rat heart tissues after intravenous administration after 30 min was determined", "settings": "in vivo, 0.5 h"}, "[25]": {"system": "Rattus norvegicus", "experiment": "Distribution of radioactivity in the female rat liver tissues after intravenous administration after 3h was determined", "settings": "in vivo"}, "[26]": {"system": "Rattus norvegicus", "experiment": "Distribution of radioactivity in the female rat heart tissues after intravenous administration after 60 min was determined", "settings": "in vivo, 1 h"}, "[27]": {"system": "Rattus norvegicus", "experiment": "Distribution of radioactivity in the female rat blood tissues after intravenous administration after 60 min was determined", "settings": "in vivo, 1 h"}, "[28]": {"system": "Rattus norvegicus", "experiment": "Distribution of radioactivity in the female rat kidney tissues after intravenous administration after 5 min was determined", "settings": "in vivo"}, "[29]": {"system": "Rattus norvegicus", "experiment": "Distribution of radioactivity in the female rat blood tissues after intravenous administration after 5 min was determined", "settings": "in vivo"}, "[30]": {"system": "Rattus norvegicus", "experiment": "Distribution of radioactivity in the female rat heart tissues after intravenous administration after 3h was determined", "settings": "in vivo"}, "[31]": {"system": "Rattus norvegicus", "experiment": "Distribution of radioactivity in the female rat heart tissues after intravenous administration after 1 day was determined", "settings": "in vivo, 24 h"}}, "note": "Several values for one entry are separate records, joined by “and”; a condition that tells them apart may be missing. Equal entries are not always repeated."}
{"compound": "I/C=C/CCC[P+](c1ccccc1)(c1ccccc1)c1ccccc1.[I-]", "values": [{"measurement": "Activity", "setting": "[1]", "result": "0.2% and 0.01%"}, {"measurement": "Activity", "setting": "[2]", "result": "0.13% and 0.019%"}, {"measurement": "Activity", "setting": "[3]", "result": "4.38% and 2.75%"}, {"measurement": "Activity", "setting": "[4]", "result": "0.102% and 0.91%"}, {"measurement": "Activity", "setting": "[5]", "result": 1, "unit": "%"}, {"measurement": "Activity", "setting": "[6]", "result": "0.89% and 0.75%"}, {"measurement": "Activity", "setting": "[7]", "result": 5.59, "unit": "%"}, {"measurement": "Activity", "setting": "[8]", "result": "0.61% and 0.49%"}, {"measurement": "Activity", "setting": "[9]", "result": "0.79% and 0.64%"}, {"measurement": "Activity", "setting": "[10]", "result": "0.22% and 0.15%"}, {"measurement": "Activity", "setting": "[11]", "result": "0.093% and 0.009%"}, {"measurement": "Activity", "setting": "[12]", "result": 0.64, "unit": "%"}, {"measurement": "Activity", "setting": "[13]", "result": "1.59% and 0.15%"}, {"measurement": "Activity", "setting": "[14]", "result": "0.96% and 0.08%"}, {"measurement": "Activity", "setting": "[15]", "result": "0.18% and 0.02%"}, {"measurement": "Activity", "setting": "[16]", "result": "13.11% and 8.91%"}, {"measurement": "Activity", "setting": "[17]", "result": "0.19% and 0.17%"}, {"measurement": "Activity", "setting": "[18]", "result": 0.75, "unit": "%"}, {"measurement": "Activity", "setting": "[19]", "result": "7.95% and 5.06%"}, {"measurement": "Activity", "setting": "[20]", "result": "0.79% and 0.46%"}, {"measurement": "Activity", "setting": "[21]", "result": "2.64% and 0.25%"}, {"measurement": "Activity", "setting": "[22]", "result": "1.49% and 2.38%"}, {"measurement": "Activity", "setting": "[23]", "result": "0.75% and 0.65%"}, {"measurement": "Activity", "setting": "[24]", "result": "1.6% and 2.31%"}, {"measurement": "Activity", "setting": "[25]", "result": "0.74% and 0.09%"}, {"measurement": "Activity", "setting": "[26]", "result": "1.83% and 2.59%"}, {"measurement": "Activity", "setting": "[27]", "result": "1.14% and 0.11%"}, {"measurement": "Activity", "setting": "[28]", "result": "13.72% and 7.08%"}, {"measurement": "Activity", "setting": "[29]", "result": "1.58% and 0.14%"}, {"measurement": "Activity", "setting": "[30]", "result": "1.54% and 2.21%"}, {"measurement": "Activity", "setting": "[31]", "result": "1.18% and 1.58%"}]}
